# Tests used:
# [1] = system: NALM6.GFP.LUC.CD19 target cells; experiment: Serial killing assay; type: cell-based, human
# Experimental: CD19 CAR-T cells were thawed in RPMI media supplemented with HEPES, Penicillin/Streptomycin/L-Glutamine and 10% FBS and rested overnight. The following day, drugs were serially diluted and prepared in 96-well plates. Rested T cells were counted and normalized so that 25,000 or 8,333 T cells were plated with 25,000 NALM6.GFP.LUC.CD19 target cells (1:1 or 1:3 Effector:Target ratio) in the prepared 96-well plates. At 16 hour post-incubation and every 3-4 days, T cell killing of targets was measured via luciferase detection. D-luciferin substrate was added to the co-culture wells at a final concentration of 0.14 mg/mL and plates were incubated at 37° C. in the dark for 10 minutes. Luminescent signal was read immediately after in a VarioSkan™ LUX microplate reader. T cell-mediated cytotoxicity was calculated as follows: % Cytotoxicity=[1−luciferase signal of (sample of interest/target alone control)]*100. Afterwards, co-cultures were stained with LIVE/DEAD and antibodies against CD4, CD8 and KIP-1 and then washed. Cells were then analyzed and quantified via the Attune NxT flow cytometer. T cells were then repeatedly stimulated with fresh 25,000 target cells, and this process was repeated every 3-4 days.
# in vitro = conditions: human, CAR-T cells
# [2] = cited from earlier work
# CAR-T cells = experiment: CAR-T cell expansion assay (KIP-1 or CD3/CD28 stimulation); conditions: for % viabili.: CD3/CD28 stimulation; for % viabi.: KIP-1 stimulation
# Nalm-6 luc = experiment: CAR-T cell killing assay (luciferase viability of tumor cells)
# [3] = system: NALM6.GFP.LUC.CD19 target cells; experiment: Serial killing assay of CAR-T, percent cytotoxicity by luciferase detection; conditions: two different E:T ratios, dose titration
smiles,measurement,setting,value
CCS(=O)(=O)N1CC(CC#N)(n2cc(-c3ncnc4[nH]ccc34)cn2)C1 [baricitinib],reduction of clinical dosing required to avoid negative impacts on product performance,[1],roughly 4 fold
same,"viability at 0 day, 5 nM",in vitro,75%
same,"viability at 0 day, 10 nM",in vitro,75%
same,"viability at 4 day, 5 nM",in vitro,67.4%
same,"viability at 4 day, 10 nM",in vitro,58.9%
same,"viability at 8 day, 5 nM",in vitro,72.7%
same,"viability at 12 day, 5 nM",in vitro,82.3%
same,"viability at 12 day, 10 nM",in vitro,71.2%
same,Cmax,"[2]; clinical dosing 2 mg daily, cell prints (nM)",45.7 nM
same,Protein binding,"[2]; plasma protein binding, reported",50%
same,% viability,"CAR-T cells; CD3/CD28, dose 5 nM, day 4",72.9%
same,% viability,"CAR-T cells; CD3/CD28, dose 5 nM, day 8",55.7%
same,% viability,"CAR-T cells; CD3/CD28, dose 5 nM, day 12",83.1%
same,% viability,"CAR-T cells; CD3/CD28, dose 10 nM, day 4",70.7%
same,% viability,"CAR-T cells; CD3/CD28, dose 10 nM, day 12",84.7%
same,% viabili.,"CAR-T cells; 10 nM, Day 0",84%
same,% viabili.,"CAR-T cells; 10 nM, Day 4",82.3%
same,% viabili.,"CAR-T cells; 10 nM, Day 8",90.2%
same,% viabili.,"CAR-T cells; 10 nM, Day 12",80.2%
same,% viabili.,"CAR-T cells; 20 nM, Day 0",84%
same,% viabili.,"CAR-T cells; 20 nM, Day 4",86.4%
same,% viabili.,"CAR-T cells; 20 nM, Day 8",82.5%
same,% viabili.,"CAR-T cells; 20 nM, Day 12",76.7%
same,% viabili.,"CAR-T cells; 40 nM, Day 0",84%
same,% viabili.,"CAR-T cells; 40 nM, Day 4",89.8%
same,% viabili.,"CAR-T cells; 40 nM, Day 8",85.7%
same,% viabili.,"CAR-T cells; 40 nM, Day 12",74.7%
same,% viabili.,"CAR-T cells; 60 nM, Day 0",84%
same,% viabili.,"CAR-T cells; 60 nM, Day 4",91.7%
same,% viabili.,"CAR-T cells; 60 nM, Day 8",91.3%
same,% viabili.,"CAR-T cells; 60 nM, Day 12",71.5%
same,% viabili.,"CAR-T cells; 80 nM, Day 0",84%
same,% viabili.,"CAR-T cells; 80 nM, Day 4",91.1%
same,% viabili.,"CAR-T cells; 80 nM, Day 8",83.6%
same,% viabili.,"CAR-T cells; 80 nM, Day 12",67.7%
same,% viabili.,"CAR-T cells; 100 nM, Day 0",84%
same,% viabili.,"CAR-T cells; 100 nM, Day 4",86.8%
same,% viabili.,"CAR-T cells; 100 nM, Day 8",73.3%
same,% viabili.,"CAR-T cells; 100 nM, Day 12",76.3%
same,% viability,"CAR-T cells; KIP-1, dose 10 nM, day 8",58.7%
same,% viabi.,"CAR-T cells; 10 nM, Day 0",84%
same,% viabi.,"CAR-T cells; 10 nM, Day 4",64.7%
same,% viabi.,"CAR-T cells; 10 nM, Day 8",55.2%
same,% viabi.,"CAR-T cells; 10 nM, Day 12",70.4%
same,% viabi.,"CAR-T cells; 20 nM, Day 0",84%
same,% viabi.,"CAR-T cells; 20 nM, Day 4",61.3%
same,% viabi.,"CAR-T cells; 20 nM, Day 8",78%
same,% viabi.,"CAR-T cells; 20 nM, Day 12",73.5%
same,% viabi.,"CAR-T cells; 40 nM, Day 0",84%
same,% viabi.,"CAR-T cells; 40 nM, Day 4",65%
same,% viabi.,"CAR-T cells; 40 nM, Day 8",77.8%
same,% viabi.,"CAR-T cells; 40 nM, Day 12",68.8%
same,% viabi.,"CAR-T cells; 60 nM, Day 0",84%
same,% viabi.,"CAR-T cells; 60 nM, Day 4",57.8%
same,% viabi.,"CAR-T cells; 60 nM, Day 8",57.6%
same,% viabi.,"CAR-T cells; 60 nM, Day 12",70.8%
same,% viabi.,"CAR-T cells; 80 nM, Day 0",84%
same,% viabi.,"CAR-T cells; 80 nM, Day 4",66.2%
same,% viabi.,"CAR-T cells; 80 nM, Day 8",69.4%
same,% viabi.,"CAR-T cells; 80 nM, Day 12",69.5%
same,% viabi.,"CAR-T cells; 100 nM, Day 0",84%
same,% viabi.,"CAR-T cells; 100 nM, Day 4",67.7%
same,% viabi.,"CAR-T cells; 100 nM, Day 8",78.1%
same,% viabi.,"CAR-T cells; 100 nM, Day 12",65.2%
same,Mean tumor cell death (%),"Nalm-6 luc; E:T ratio 1:1, dose 10 nM",97.9%
same,Mean tumor cell death (%),"Nalm-6 luc; E:T ratio 1:1, dose 20 nM",97.5%
same,Mean tumor cell death (%),"Nalm-6 luc; E:T ratio 1:1, dose 40 nM",85.7%
same,Mean tumor cell death (%),"Nalm-6 luc; E:T ratio 1:1, dose 60 nM",96.2%
same,Mean tumor cell death (%),"Nalm-6 luc; E:T ratio 1:1, dose 80 nM",96%
same,Mean tumor cell death (%),"Nalm-6 luc; E:T ratio 1:1, dose 100 nM",93.1%
same,Mean tumor cell death (%),"Nalm-6 luc; E:T ratio 1:3, dose 10 nM",65.6%
same,Mean tumor cell death (%),"Nalm-6 luc; E:T ratio 1:3, dose 20 nM",65%
same,Mean tumor cell death (%),"Nalm-6 luc; E:T ratio 1:3, dose 40 nM",67.4%
same,Mean tumor cell death (%),"Nalm-6 luc; E:T ratio 1:3, dose 60 nM",59%
same,Mean tumor cell death (%),"Nalm-6 luc; E:T ratio 1:3, dose 80 nM",55%
same,Mean tumor cell death (%),"Nalm-6 luc; E:T ratio 1:3, dose 100 nM",31.1%
same,Mean tumor cell death (%),"Nalm-6 luc; E:T ratio 1:9, dose 10 nM",25.4%
same,Mean tumor cell death (%),"Nalm-6 luc; E:T ratio 1:9, dose 20 nM",27.6%
same,Mean tumor cell death (%),"Nalm-6 luc; E:T ratio 1:9, dose 40 nM",26.1%
same,Mean tumor cell death (%),"Nalm-6 luc; E:T ratio 1:9, dose 60 nM",21.1%
same,Mean tumor cell death (%),"Nalm-6 luc; E:T ratio 1:9, dose 80 nM",3.97%
same,Mean tumor cell death (%),"Nalm-6 luc; E:T ratio 1:9, dose 100 nM",5.5%
same,impact on CAR-T serial killing (percent cytotoxicity),[3],negative impacts
